Measurements published in article PMC8951750, “In Vitro Anticancer and Cancer-Preventive Activity of New Triterpene Glycosides from the Far Eastern Starfish Solaster pacificus” (Marine Drugs, 2022).
Where “and” joins values, the source holds several entries; their conditions need not be identical. Equal values may be shown once.

What was measured:
[1] = tested on: breast cancer MDA-MB-231 cells; conditions: non-toxic concentration of 0.5 μM; cited from earlier work
[2] = tested on: melanoma RPMI-7951 cells; conditions: non-toxic concentration of 0.5 μM; cited from earlier work
[3] = tested on: colorectal carcinoma HT-29 cells; conditions: non-toxic concentration of 0.5 μM; cited from earlier work
[4] = tested on: JB6 Cl41 cells; test: Soft agar assay, EGF-induced neoplastic cell transformation; format: cell-based, mouse; conditions: compound 0.1 µM, EGF 1 ng/mL, soft agar, 2 weeks, vs positive control; 0.1 µM
Experimental: (§1) JB6 Cl41 cells (2.4 × 10^4) were exposed to epidermal growth factor (EGF) (1 ng/mL) or phorbol 12-myristate 13-acetate (TPA) (10 ng/mL) and treated either with DMSO (control) or the triterpene glycosides 1–9 from S. pacificus (0.1, 0.5, and 1 µM) in 1 mL of 0.3% basal medium Eagle (BME) agar containing 10% FBS, 2 mM L-glutamine, and 25 µg/mL gentamicin (agar mix). The cultures were maintained in a humidified atmosphere with 5% CO2 at 37 °C for 14 days, and the cell’s colonies were scored using a microscope, Motic AE 20 (XiangAn, Xiamen, China), and the ImageJ software bundled with 64-bit Java 1.8.0_112 (NIH, Bethesda, MD, USA). To determine the effect of investigated compounds on neoplastic cell transformation induced by ionizing radiation (X-ray or UVB), JB6 Cl41 cells (3 × 10^5/dish) were seeded in 60 mm dishes and cultured for 24 h at 37 °C in 5% CO2 incubator. Then, the cells were exposed to X-rays (X-ray system XPERT 80 (KUB Technologies, Inc, Milford, CT, USA)) at dose of 0.5 Gy or UVB (wavelengths below 312 nm) (Bio-Link UV irradiation system, Vilber, France) at dose of 0.3 J/cm^2 three times a week for 3 weeks. Irradiated JB6 Cl41 cells (2.4 × 10^4) were treated either with DMSO (control) or the triterpene glycosides 1–9 from S. pacificus (0.1, 0.5, and 1 µM) in 1 mL of agar mix. The cultures were maintained in a humidified atmosphere with 5% CO2 at 37 °C for 14 days, and the cell’s colonies were scored using a microscope, Motic AE 20 (XiangAn, Xiamen 361101, China), and the ImageJ software bundled with 64-bit Java 1.8.0_112 (NIH, Bethesda, MD, USA).

[5] = tested on: human melanoma cells SK-MEL-28; test: Cell viability, MTS assay, SK-MEL-28; format: cell-based
Experimental: (§2) MTS assay was used to measure the cell viability of tested normal and cancer cells. Cells were seeded into 96-well plates (“Jet Biofil”, Guangzhou, China) at density of 1.0 × 10^4/200 µL for 24 h at 37 °C in a 5% CO2 incubator. Then, cell monolayer was treated either with DMSO (control) or various concentrations of the triterpene glycosides 1–9 from S. pacificus (0.1, 0.5, 2.5, 12.5, 62.5 µM) in fresh appropriate culture medium for 24 h. Subsequently, the cells were incubated with 15 µL of 3-(4,5-dimethylthiazol-2-yl)-5-(3-carboxymethoxyphenyl)-2-(4-sulfophenyl)-2H-tetrazolium (MTS reagent) (“Promega”, Madison, WI, USA) for 3 h, and the absorbance of each well was measured at 490/630 nm using Power Wave XS microplate reader (“BioTek”, Wynusky, VT, USA). The concentration at which the compounds exert half of their maximal inhibitory effect on cell viability (IC50) was calculated by the AAT-Bioquest® online calculator [39]. The selectivity index (SI) was calculated as described previously using the following formula SI = IC50 of the compounds in normal cell (JB6 Cl41)/IC50 of the same compounds in human melanoma cell lines (SK-MEL-2, SK-MEL-28, or RPMI-7951).

[6] = tested on: Human erythrocytes (O(I)+); test: Hemolysis assay; format: cell-based; conditions: 1 h, 37 °C, PBS pH 7.4
Method in brief: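 Washed human O(I)+ erythrocytes in PBS pH 7.4 (OD700 2.0) were incubated 1 h at 37 °C with compounds at 0.1–10 µM, with cucumarioside A2-2 as positive control. Haemoglobin released into the supernatant was read at 570 nm, and ED50 for 50% haemolysis was calculated from triplicates.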

[7] = tested on: human melanoma cells SK-MEL-2; test: Cell viability, MTS assay, SK-MEL-2; format: cell-based
Experimental: as §2

[8] = tested on: JB6 Cl41 cells; test: Soft agar assay, UVB-induced neoplastic cell transformation; format: cell-based, mouse; conditions: compound 0.1 µM, UVB 0.3 J/cm^2 three times a week for 3 weeks, soft agar; 0.1 µM
Experimental: as §1

[9] = tested on: non-cancerous mouse epidermal cells JB6 Cl41; test: Cell viability, MTS assay, JB6 Cl41; format: cell-based; conditions: read-out: IC50, cell viability JB6 Cl41; MTS assay, 24 h, normal cells
Experimental: as §2

[10] = tested on: human melanoma cells RPMI-7951; test: Cell viability, MTS assay, RPMI-7951; format: cell-based
Experimental: as §2

[11] = tested on: JB6 Cl41 cells; test: Soft agar assay, X-ray-induced neoplastic cell transformation; format: cell-based, mouse; conditions: compound 0.1 µM, X-rays 0.5 Gy three times a week for 3 weeks, soft agar; 0.1 µM
Experimental: as §1

[12] = tested on: JB6 Cl41 cells; test: Soft agar assay, TPA-induced neoplastic cell transformation; format: cell-based, mouse; conditions: compound 0.1 µM, TPA 10 ng/mL, soft agar, 2 weeks, vs positive control; 0.1 µM
Experimental: as §1

[13] = tested on: SK-MEL-2 cells; test: Soft agar assay, colony formation of cancer cells; format: cell-based, human; conditions: compound 0.1 µM, 14 days
Experimental: SK-MEL-2 cells (2.4 × 10^4) were treated either with DMSO (control) or the triterpene glycosides 1–9 from S. pacificus (0.1 µM) in 1 mL of agar mix. After 14 days, colonies of cancer cells were scored as described above.

Which “suppression of colony formation of MDA-MB-231 cells” value (“suppression … of MDA-MB-231 cells” below) [1] does the source give for pacificusoside C here?
Its value is “almost completely suppressed”.

What about the “suppression of colony formation of RPMI-7951 cells” value (“suppression … of RPMI-7951 cells” for short) [2] of the same compound?
Its value is “almost completely suppressed”.

And the “suppression of colony formation of HT-29 cells” value (“suppression … of HT-29 cells” for short) [3]?
Its value is “almost completely suppressed”.

With `COC1C(O)COC(OC2C(O)C(CO)OC(OC3C(C)OC(OC4C(OC5CCC6(C)C7CCC89C(=O)OC(C)(/C=C/C=C(C)C)C8C(OC(C)=O)CC9(C)C7=CCC6C5(C)C)OCC(O)C4O)C(OC4OCC(O)C(O)C4O)C3O)C2O)C1O` (stereo not shown) [cucumarioside C2] as the compound, how does the “suppression … of MDA-MB-231 cells” value [1] read?
The value was “almost completely suppressed”.

And the “suppression … of RPMI-7951 cells” value [2]?
The value was “almost completely suppressed”.

What about the “suppression … of HT-29 cells” value [3] of the same compound?
The value was “almost completely suppressed”.

With `CO[C@@H]1[C@@H](O)[C@H](O[C@@H]2[C@@H](O)[C@H](O[C@H]3[C@H](O)[C@@H](O[C@@H]4OC[C@@H](O)[C@H](O)[C@H]4O)[C@H](O[C@H]4[C@H](O[C@H]5CC[C@]6(C)[C@@H]7CCC89C(=O)O[C@@](C)(/C=C\C=C(C)C)[C@H]8[C@@H](OC(C)=O)C[C@@]9(C)C7=CC[C@H]6C5(C)C)OC[C@@H](O)[C@@H]4O)O[C@@H]3C)O[C@H](CO)[C@H]2O)OC[C@H]1O` (stereo partly shown) [cucumarioside C1] as the compound, how does the “suppression … of MDA-MB-231 cells” value [1] read?
Its value is “almost completely suppressed”.

And the “suppression … of RPMI-7951 cells” value [2]?
Its value is “almost completely suppressed”.

What about the “suppression … of HT-29 cells” value [3] of the same compound?
Its value is “almost completely suppressed”.

Which results are given for `COC1C(O)COC(OC2C(O)C(COS(=O)(=O)O)OC(OC3C(C)OC(OC4C(OC5CCC6(C)C7CCC89C(=O)OC(C)(C=CC=C(C)C)C8C(OC(C)=O)CC9(C)C7=CCC6C5(C)C)OCC(O)C4O)C(O)C3O)C2O)C1O` [Compound 6, 3β-O-{3-O-methyl-β-D-xylopyranosyl-(1→3)-6-O-6-sulfoxy-β-D-glucopyranosyl-(1→4)-β-D-quinovopyranosyl-(1→2)-β-D-xylopyranosyl}-16β-acetoxyholosta-7,22Z,24-triene]?
inhibition of EGF-induced neoplastic transformation of JB6 Cl41 cells [4]: 44%; SI (selectivity index) SK-MEL-28 ([5]; IC50 JB6 Cl41 / IC50 SK-MEL-28): 0.8; IC50 ([5]; read-out: IC50, cell viability SK-MEL-28, MTS assay, 24 h): 8.2 ± 0.2 µM; ED50, effective dose causing 50% of erythrocytes hemolysis [6]: 1.68 µM and 1.68 ± 0.14 µM; SI (selectivity index) SK-MEL-2 ([7]; IC50 JB6 Cl41 / IC50 SK-MEL-2): 9.5; IC50 ([7]; read-out: IC50, cell viability SK-MEL-2, MTS assay, 24 h): 0.69 ± 0.03 µM; inhibition of UVB-induced neoplastic cell transformation (decrease of colonies number) [8]: 10%; IC50 [9]: 6.6 ± 0.3 µM; SI (selectivity index) RPMI-7951 ([10]; IC50 JB6 Cl41 / IC50 RPMI-7951): 0.2; IC50 ([10]; read-out: IC50, cell viability RPMI-7951, MTS assay, 24 h): 32.4 ± 0.5 µM; inhibition of X-ray-induced cell transformation (JB6 Cl41 colonies formation) [11]: 23%; inhibition of TPA-induced neoplastic transformation of JB6 Cl41 cells [12]: 61%; decrease of colonies number of SK-MEL-2 cells (colony formation) [13]: 40%
